Source: patent EP0124891A2, “Antimutagenic agent and method of inactivating the mutagenicity of foods and beverages by using said agent” (SUNTORY LIMITED, priority 1983, dated 1984)

Tests used:
Neuros^pera crassa = conditions: cited from earlier work
human cells = conditions: cited from earlier work
mouse deodenum = conditions: 0.1 % of hydrogen peroxide; cited from earlier work
[1] = system: Salmonella typhimurium TA 100; test: Mutagenicity and antimutagenic effect, Salmonella test (Ames), preincubation method, revertant colony count; conditions: Salmonella typhimurium TA 100 (histidine-requiring), 48 h, pH 7.4
Description: Histidine-requiring Salmonella typhimurium TA 100 (hereunder S. TA 100) was used.
Instant coffee powder was dissolved in distilled water. Predetermined amounts of wheat germ preparations were also dissolved in distilled water, and 50 µl of each solution was mixed with an equal amount of the aqueous coffee solution.
Roasted coffee beans (20 g) were extracted with hot distilled water (250 ml), and the extract was filtered through coffee filter paper No. 12 manufactured by Kalita Co., Ltd. The extract was freeze-dried, and after measuring the weight of the dry product, it was dissolved in distilled water. Predetermined amounts of wheat germ preparations were also dissolved in distilled water, and 50 µl of each solution was mixed with an equal amount of the aqueous solution of coffee concentrate. […]
To 100 µl of each of the samples prepared in (iii)(a) to (f), 500 µl of 0.1 M sodium phosphate buffer (pH 7.4) plus 100 µl of a culture of S. TA 100 strain were added. […] After incubation at 37°C for 48 hours, the number of colonies forming on the plate was counted as revertants. The percent inhibition of mutagenicity can be calculated by the following formula, if necessary: [formula]
A powder of extracted coffee beans (15 mg) as prepared by the method shown in I)(iii)(b) was dissolved in distilled water to make 50 µl. […] The mutagenicity of each mixture was determined by the method shown in I)(i).

OO [Hydrogen peroxide, hydrogen peroxide]
mutagenicity to Neurospora crassa (Neuros^pera crassa): mutagenic | clastogenicity to human cells (human cells): clastogenic | carcinogenicity (mouse deodenum): proved to cause malignant tumors | mutagenicity to S. TA 100 [1]: 160 revertants/10^8 survivors/Pmole
